Here are results for seven compounds from US20090215713A1, “Use of atp for the manufacture of a medicament for the prevention and treatment of oxidative stress and related conditions” (priority 2004, published 2009).

Molecules are shown by their SMILES. “Also recorded” adds a separate entry of the source.

Assay [1] in a line: ESR measurement of DMPO—OH spin adducts during Fenton chemistry. The assay is classed as biochemical.
Method: The effect of ATP on the formation or scavenging of hydroxyl radicals, generated by Fenton reagents was measured as DMPO—OH spin adducts in ESR spectra. The ESR studies were performed at room temperature using a Bruker EMX 1273 spectrometer equipped with an ER 4119HS high sensitivity cavity and 12 kW power supply. The following instrument conditions were used: scan range, 60 G; center magnetic field, 3490 G; modulation amplitude, 1.0 G; microwave frequency, 9.86 GHz; time constant, 40.96 ms, scan time, 20.48 ms; number of scans, 50. OH radicals were generated by the Fenton reaction, and 5,5-dimethyl-1-pyrroline N-oxide (DMPO) was used for trapping hydroxyl radicals. Fifty microliters of 10 mM H2O2, 50 μl of 250 mM DMPO, 50 μl milliQ, 50 μl milliQ (control) or sample, and 50 μl 5 mM FeSO4/5 mM EDTA were mixed, and then transferred to a capillary glass tube. After 2 minutes, DMPO—OH spin adducts were measured by ESR. Quantification of the spectra was performed by peak integration using the WIN-EPR spectrum manipulation program.
Electron spin resonance (ESR) studies were performed at room temperature using a Bruker EMX 1273 spectrometer equipped with an ER 4119HS high sensitivity cavity and 12 kW power supply. The following instrument conditions were used: scan range, 60 G; center magnetic field, 3490 G; modulation amplitude, 1.0 G; microwave frequency, 9.86 GHz; time constant, 40.96 ms, scan time, 20.48 ms; number of scans, 50. OH radicals were generated by the Fenton reaction, and 5,5-Dimethyl-1-pyrroline N-oxide (DMPO) was used for trapping hydroxyl radicals. Fifty microliters of 10 mM H2O2, 50 μl 250 mM DMPO, 50 μl milliQ, 50 μl milliQ (blanco) or sample and 50 μl 5 mM FeSO4/5 mM EDTA were mixed, transferred to a capillary glass tube and the DMPO—OH spin adducts were measured after 2 minutes by ESR. Quantification of the spectra (in arbitrary units) was performed by peak integration using the WIN-EPR spectrum manipulation program.
The subject of assay [2] is TNF-α. Kind of assay: LPS+PHA-induced TNF-α secretion in whole blood from healthy subjects (ELISA). To be noted: for effect of purinergic compound on LPS+PHA-induced TNF-α release: 300 μM, 24 h; for effect on inhibiting TNFα and stimulating IL-10 production: LPS-PHA stimulated whole blood, Experiment 4. The assay is classed as cell-based, human. The procedure: FIG. 7 Effect of ATP on LPS+PHA-induced TNF-α secretion in whole blood from healthy subjects. The whole blood was exposed to 10 μg/ml LPS and 1 μg/ml PHA with indicated concentrations of ATP for 24 h. The TNF-α released into the supernatants was analyzed using the ELISA method. Results are expressed in percentage, 100% being the TNF-α release under stimulation by LPS+PHA without ATP. […] Data are expressed as the mean values; error bars represent SEM. *, different from control (stimulation by LPS+PHA without ATP) (P<0.05).
FIG. 13 Effect of different purinergic compounds on LPS+PHA-induced TNF-α secretion in whole blood. The whole blood was exposed to 10 μg/ml LPS and 1 μg/ml PHA with the indicated purinergic compounds at the concentration of 300 μM for 24 h. The TNF-α released into the supernatant was analyzed using the ELISA method. Results are expressed in percentage, 100% being the TNF-α release under stimulation by LPS+PHA without addition of a purinergic compound (control). […] The TNF-α release induced by LPS+PHA from whole blood was not inhibited by UTP, UDP or CTP. Data are expressed as the mean values; error bars represent SEM.
Blood was collected from 8 healthy subjects in heparin containing vacutainer tubes. All incubations were performed in duplicate. ATP was dissolved in RPMI 1640 culture medium, at a final concentration of 1-300 μM, and blood pre-incubated with ATP at 5% CO2 at 37 DC for 30 min. After stimulation with LPS en PHA (10 and 1 μg/ml final concentration, respectively), the plates were incubated in 5% CO2 at 37° C. for 24 h. Cell-free supernatant fluids were then collected by centrifugation (6000 rpm, 10 min at 4° C.) and stored at −20° C. until tested for presence of cytokines. All cytokines were quantified by means of PeliKine Compact human ELISA kits (CLB/Sanquin, The Netherlands), based on appropriate and validated sets of monoclonal antibodies.
Whole blood was collected and stimulated with LPS+PHA as described for Experiment 2. ATP, dissolved in RPMI 1640 culture medium, was added to the blood at a final concentration of 1-1000 μM. The agonists were added in the same way as ATP, however their stock solutions are prepared in PBS and further diluted in medium. All incubations are performed in duplicate.
On the technique in general: In an ELISA, binding on a coated surface is turned into a signal by an enzyme label.

Assay [3] deals with mice bearing colon tumour. To be noted: cited from earlier work; for effect on host weight loss: daily intraperitoneal injections of 25 mmol/L for 10 days.

Take `Nc1ncnc2nc[nH]c12` [adenine]: the “effect on DMPO—OH spin adduct formation / hydroxyl radicals” value in assay [1] (1 mM) is on record as “little or no effect; also recorded: no significant (P<0.05) effect”.
For the compound `O=c1ccn([C@@H]2O[C@H](COP(=O)(O)OP(=O)(O)O)[C@@H](O)[C@H]2O)c(=O)[nH]1` [UDP], in assay [2], the “effect of purinergic compound on LPS+PHA-induced TNF-α release” value (shortened to “effect of purinergic compound”) was “not inhibited”; the “effect on inhibiting TNFα and stimulating IL-10 production” value was “little or no effect”.
As to `Nc1ncnc2c1ncn2[C@@H]1O[C@H](CO)[C@@H](O)[C@H]1O` [adenosine], the “effect of purinergic compound” value in assay [2] is “least inhibition”. Moreover, in assay [3] (adenosine without phosphate), the “inhibition of host weight loss of tumour-bearing animals” value is reported as “ineffective”. In assay [3], the “effect on host weight loss” value was “significant inhibition”.
Consider `O=c1ccn([C@@H]2O[C@H](COP(=O)(O)OP(=O)(O)OP(=O)(O)O)[C@@H](O)[C@H]2O)c(=O)[nH]1` [UTP], for which, in assay [2], the “effect of purinergic compound” value is “not inhibited”; the “effect on inhibiting TNFα and stimulating IL-10 production” value is recorded as “little or no effect”.
In the case of `Nc1ncnc2c1ncn2[C@@H]1O[C@H](COP(=O)(O)O)[C@@H](O)[C@H]1O` [AMP], the “effect of purinergic compound” value in assay [2] is on record as “inhibited”. Besides, the “effect on hydroxyl radicals” value was “no significant effect” in assay [1] (0.1, 0.3 and 1 mM); “reduction of hydroxyl radicals; also recorded: significant (P<0.05) reduction” in assay [1] (3 and 10 mM). The “effect on host weight loss” value in assay [3] is on record as “significant inhibition”.
On to `Nc1ccn([C@@H]2O[C@H](COP(=O)(O)OP(=O)(O)OP(=O)(O)O)[C@@H](O)[C@H]2O)c(=O)n1` [CTP], for which, in assay [2], the “effect of purinergic compound” value is listed as “not inhibited”; the “effect on inhibiting TNFα and stimulating IL-10 production” value is “little or no effect”.
Turning to `Nc1ncnc2c1ncn2[C@@H]1O[C@H](COP(=O)(O)OP(=O)(O)O)[C@@H](O)[C@H]1O` [ADP], in assay [2], the “effect of purinergic compound” value is “inhibited”. The “effectiveness in preventing DMPO—OH formation relative to comparator” value in assay [1] (0.1 mM-10 mM) is given as “slightly less effective”. The “inhibition of the DMPO—OH spin adduct formation” value in assay [1] (highest concentration used (range 0.1 mM-10 mM)) is “≈ 70%”.
